Test results reported in PubChem BioAssay (NCI).
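Exposure lasted 48 hours, with cells grown in 96-well plates and compounds tested at five concentrations. TGI is the concentration that stops growth completely.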

Key:
Assay in all cases: NCI tumour cell line growth inhibition, 48 h
TK-10 renal = tested on: TK-10 renal
SF-268 CNS = tested on: SF-268 CNS
IGROV1 ovarian = tested on: IGROV1 ovarian
DU-145 prostate = tested on: DU-145 prostate
NCI-H460 lung = tested on: NCI-H460 lung
UACC-257 melanoma = tested on: UACC-257 melanoma
CAKI-1 renal = tested on: CAKI-1 renal
KM12 colon = tested on: KM12 colon
NCI/ADR-RES ovarian = tested on: NCI/ADR-RES ovarian
U251 CNS = tested on: U251 CNS
COLO 205 colon = tested on: COLO 205 colon
OVCAR-5 ovarian = tested on: OVCAR-5 ovarian
HOP-92 NSCLC = tested on: HOP-92 NSCLC
786-0 renal = tested on: 786-0 renal
A549 NSCLC = tested on: A549 NSCLC
K-562 leukemia = tested on: K-562 leukemia
CCRF-CEM leukemia = tested on: CCRF-CEM leukemia
OVCAR-4 ovarian = tested on: OVCAR-4 ovarian
MOLT-4 leukemia = tested on: MOLT-4 leukemia
OVCAR-8 ovarian = tested on: OVCAR-8 ovarian
SF-539 CNS = tested on: SF-539 CNS
HL-60(TB) leukemia = tested on: HL-60(TB) leukemia
PC-3 prostate = tested on: PC-3 prostate
MDA-MB-435 = tested on: MDA-MB-435
HT29 colon = tested on: HT29 colon
HCT-116 colon = tested on: HCT-116 colon
MCF7 breast = tested on: MCF7 breast
ACHN renal = tested on: ACHN renal
UO-31 renal = tested on: UO-31 renal
NCI-H23 lung = tested on: NCI-H23 lung
BT-549 breast = tested on: BT-549 breast
RPMI-8226 leukemia = tested on: RPMI-8226 leukemia
HS 578T breast = tested on: HS 578T breast
RXF 393 renal = tested on: RXF 393 renal
HCC-2998 colon = tested on: HCC-2998 colon
SK-MEL-5 melanoma = tested on: SK-MEL-5 melanoma
EKVX NSCLC = tested on: EKVX NSCLC
SK-MEL-2 melanoma = tested on: SK-MEL-2 melanoma
SK-MEL-28 melanoma = tested on: SK-MEL-28 melanoma
MDA-MB-231 breast = tested on: MDA-MB-231 breast
SF-295 CNS = tested on: SF-295 CNS
NCI-H226 lung = tested on: NCI-H226 lung
MALME-3M melanoma = tested on: MALME-3M melanoma
NCI-H522 lung = tested on: NCI-H522 lung
SR leukemia = tested on: SR leukemia
SK-OV-3 ovarian = tested on: SK-OV-3 ovarian
A498 renal = tested on: A498 renal
HOP-62 NSCLC = tested on: HOP-62 NSCLC
SNB-19 CNS = tested on: SNB-19 CNS
T-47D breast = tested on: T-47D breast
OVCAR-3 ovarian = tested on: OVCAR-3 ovarian
HCT-15 colon = tested on: HCT-15 colon
M14 melanoma = tested on: M14 melanoma
SN12C renal = tested on: SN12C renal
SNB-75 CNS = tested on: SNB-75 CNS
SW-620 colon = tested on: SW-620 colon
UACC-62 melanoma = tested on: UACC-62 melanoma
LOX IMVI melanoma = tested on: LOX IMVI melanoma

In the case of `O=C(Nc1ccc(Cl)cc1)c1cc(S(=O)(=O)Nc2nnc3c(Cl)cc(C(F)(F)F)cn23)c(S)cc1Cl`, the TGI (TK-10 renal) was over 100 µM, the TGI (SF-268 CNS) was over 100 µM and the TGI (IGROV1 ovarian) was over 100 µM. For the same compound, the TGI (DU-145 prostate) was over 100 µM, the TGI (NCI-H460 lung) was over 100 µM and the TGI (UACC-257 melanoma) was over 100 µM. The TGI (CAKI-1 renal) was over 100 µM, the TGI (KM12 colon) was over 100 µM and the TGI (NCI/ADR-RES ovarian) was over 100 µM. It also gave a TGI (U251 CNS) of over 100 µM, a TGI (COLO 205 colon) of over 100 µM and a TGI (OVCAR-5 ovarian) of over 100 µM. The TGI (HOP-92 NSCLC) was over 100 µM, the TGI (786-0 renal) was over 100 µM and the TGI (A549 NSCLC) was over 100 µM. It also gave a TGI (K-562 leukemia) of over 100 µM, a TGI (CCRF-CEM leukemia) of over 100 µM and a TGI (OVCAR-4 ovarian) of over 100 µM. The TGI (MOLT-4 leukemia) was over 100 µM, the TGI (OVCAR-8 ovarian) was over 100 µM and the TGI (SF-539 CNS) was over 100 µM. The TGI (HL-60(TB) leukemia) was over 100 µM, the TGI (PC-3 prostate) was over 100 µM and the TGI (MDA-MB-435) was over 100 µM. The TGI (HT29 colon) was over 100 µM, the TGI (HCT-116 colon) was over 100 µM and the TGI (MCF7 breast) was over 100 µM. It also gave a TGI (ACHN renal) of over 100 µM, a TGI (UO-31 renal) of over 100 µM and a TGI (NCI-H23 lung) of over 100 µM. The TGI (BT-549 breast) was over 100 µM, the TGI (RPMI-8226 leukemia) was over 100 µM and the TGI (HS 578T breast) was over 100 µM. It also gave a TGI (RXF 393 renal) of over 100 µM, a TGI (HCC-2998 colon) of over 100 µM and a TGI (SK-MEL-5 melanoma) of over 100 µM. For the same compound, the TGI (EKVX NSCLC) was over 100 µM, the TGI (SK-MEL-2 melanoma) was 74.6 µM and the TGI (SK-MEL-28 melanoma) was over 100 µM. It also gave a TGI (MDA-MB-231 breast) of over 100 µM, a TGI (SF-295 CNS) of over 100 µM and a TGI (NCI-H226 lung) of over 100 µM. The TGI (MALME-3M melanoma) was over 100 µM, the TGI (NCI-H522 lung) was over 100 µM and the TGI (SR leukemia) was over 100 µM. For the same compound, the TGI (SK-OV-3 ovarian) was over 100 µM, the TGI (A498 renal) was 86.3 µM and the TGI (HOP-62 NSCLC) was over 100 µM. The TGI (SNB-19 CNS) was over 100 µM, the TGI (T-47D breast) was over 100 µM and the TGI (OVCAR-3 ovarian) was over 100 µM. For the same compound, the TGI (HCT-15 colon) was over 100 µM, the TGI (M14 melanoma) was over 100 µM and the TGI (SN12C renal) was over 100 µM.
`CCOC(=O)c1nc2ccc(C(F)(F)F)cc2nc1Oc1ccc(C(=O)OC)cc1` showed a TGI (TK-10 renal) of over 100 µM, a TGI (SF-268 CNS) of over 100 µM and a TGI (IGROV1 ovarian) of over 100 µM. For the same compound, the TGI (DU-145 prostate) was over 100 µM, the TGI (NCI-H460 lung) was over 100 µM and the TGI (UACC-257 melanoma) was over 100 µM. For the same compound, the TGI (CAKI-1 renal) was over 100 µM, the TGI (KM12 colon) was over 100 µM and the TGI (NCI/ADR-RES ovarian) was over 100 µM. The TGI (U251 CNS) was over 100 µM, the TGI (COLO 205 colon) was over 100 µM and the TGI (HOP-92 NSCLC) was over 100 µM. For the same compound, the TGI (786-0 renal) was over 100 µM, the TGI (K-562 leukemia) was over 100 µM and the TGI (CCRF-CEM leukemia) was over 100 µM. The TGI (OVCAR-4 ovarian) was over 100 µM, the TGI (MOLT-4 leukemia) was over 100 µM and the TGI (OVCAR-8 ovarian) was over 100 µM. For the same compound, the TGI (SF-539 CNS) was over 100 µM, the TGI (HL-60(TB) leukemia) was over 100 µM and the TGI (PC-3 prostate) was over 100 µM. The TGI (MDA-MB-435) was over 100 µM, the TGI (HT29 colon) was over 100 µM and the TGI (HCT-116 colon) was over 100 µM. For the same compound, the TGI (SNB-75 CNS) was over 100 µM, the TGI (MCF7 breast) was over 100 µM and the TGI (ACHN renal) was over 100 µM. It also gave a TGI (UO-31 renal) of over 100 µM, a TGI (SW-620 colon) of over 100 µM and a TGI (NCI-H23 lung) of over 100 µM. The TGI (BT-549 breast) was over 100 µM, the TGI (RPMI-8226 leukemia) was over 100 µM and the TGI (HS 578T breast) was over 100 µM. The TGI (RXF 393 renal) was over 100 µM, the TGI (UACC-62 melanoma) was over 100 µM and the TGI (HCC-2998 colon) was over 100 µM. For the same compound, the TGI (SK-MEL-5 melanoma) was over 100 µM, the TGI (EKVX NSCLC) was over 100 µM and the TGI (LOX IMVI melanoma) was over 100 µM. The TGI (SK-MEL-2 melanoma) was over 100 µM, the TGI (SK-MEL-28 melanoma) was over 100 µM and the TGI (MDA-MB-231 breast) was over 100 µM. For the same compound, the TGI (SF-295 CNS) was over 100 µM, the TGI (NCI-H226 lung) was over 100 µM and the TGI (SR leukemia) was over 100 µM. For the same compound, the TGI (SK-OV-3 ovarian) was over 100 µM, the TGI (A498 renal) was over 100 µM and the TGI (HOP-62 NSCLC) was 74.8 µM. For the same compound, the TGI (SNB-19 CNS) was over 100 µM, the TGI (T-47D breast) was over 100 µM and the TGI (HCT-15 colon) was over 100 µM. The TGI (M14 melanoma) was over 100 µM.
